Data set [1] is described as follows: Stability (moisture content) at 23° C. and 92.5% humidity. The settings on record: temperature 23° C., humidity 92.5%. The data set is classed as physicochemical. The procedure: The stability of various 3-hydroxy-3-methylbutyrate salts and the complexes of the present disclosure was each measured at 23° C. and 92.5% humidity, and the results are shown in Table 7.

Data set [2] in a line: Solubility of 3-hydroxy-3-methylbutyrate salts and complexes. The data set is classed as physicochemical. From the text:
The solubility of various 3-hydroxy-3-methylbutyrate salts and the complexes of Examples was each determined.

Moisture content and Solubility data for 7 compounds are collected here from patent US20260042727A1, “COMPLEX OF 3-HYDROXY-3-METHYLBUTYRIC ACID AND SALT THEREOF, AND PREPARATION METHOD THEREFOR” (NANJING NUTRABUILDING BIO-TECH CO., LTD., priority 2023, published 2026).

Consider `CC(C)(O)CC(=O)O` [HMB-Ca complex, 3-hydroxy-3-methylbutyric acid·calcium 3-hydroxy-3-methylbutyrate complex], for which the moisture content in data set [1] (30 min) is 0.14%; in data set [1] (1 h), 0.29%; in data set [1] (2 h), 0.47%; in data set [1] (4 h), 0.87%; in data set [1] (6 h), 1.02%; in data set [1] (7 h), 1.13%. Also, the results for the moisture content in data set [1] (11 h) and in data set [1] (22 h) were 1.37% and 2.40%, respectively. Besides, the Solubility in data set [2] amounted to 32 g/100.
Regarding “magnesium 3-hydroxy-3-methylbutyrate [reference compound]”, the moisture content in data set [1] (30 min) worked out at 0.11%; in data set [1] (1 h) it was 0.23%; in data set [1] (2 h), 0.38%; in data set [1] (4 h) it was 0.70%; in data set [1] (6 h) it was 0.81%; in data set [1] (7 h) it was 0.91%. In addition, the moisture content is 1.10% in data set [1] (11 h) and 1.92% in data set [1] (22 h). Further, the Solubility in data set [2] worked out at 6 g/100.
Turning to `CC(C)(O)CC(=O)O` [HMB-K complex, 3-hydroxy-3-methylbutyric acid·potassium 3-hydroxy-3-methylbutyrate complex], the moisture content in data set [1] (30 min) is recorded as 0.29%; in data set [1] (1 h), 0.59%; in data set [1] (2 h), 0.97%; in data set [1] (4 h), 1.80%; in data set [1] (6 h) it was 2.11%; in data set [1] (7 h) it was 2.35%. Moreover, the values for the moisture content in data set [1] (11 h) and in data set [1] (22 h) were 2.85% and 4.98%, respectively. In data set [2], the Solubility came out at 225 g/100.
As for `CC(C)(O)CC(=O)[O-].[K+]` [potassium 3-hydroxy-3-methylbutyrate, reference compound], the moisture content is reported as 0.42% in data set [1] (30 min); 0.85% in data set [1] (1 h); 1.39% in data set [1] (2 h); 2.57% in data set [1] (4 h); 3.02% in data set [1] (6 h); 3.35% in data set [1] (7 h). The moisture content is reported as 4.07% in data set [1] (11 h) and 7.11% in data set [1] (22 h). The Solubility in data set [2] came out at 101.1 g/100.
For `CC(C)(O)CC(=O)O` [HMB-Na complex, 3-hydroxy-3-methylbutyric acid·sodium 3-hydroxy-3-methylbutyrate complex], the moisture content in data set [1] (30 min) was 0.22%; in data set [1] (1 h), 0.46%; in data set [1] (2 h), 0.75%; in data set [1] (4 h), 1.39%; in data set [1] (6 h), 1.62%; in data set [1] (7 h), 1.81%. Moreover, the moisture content in data set [1] (11 h) is on record as 2.19%; in data set [1] (22 h) it was 3.83%. Also, the Solubility in data set [2] came out at 135 g/100.
`CC(C)(O)CC(=O)[O-].[Na+]` [sodium 3-hydroxy-3-methylbutyrate, reference compound]: the moisture content in data set [1] (30 min) turned out to be 0.32%; in data set [1] (1 h), 0.65%; in data set [1] (2 h) it was 1.07%; in data set [1] (4 h), 1.98%; in data set [1] (6 h), 2.32%; in data set [1] (7 h) it was 2.58%. The moisture content came to 3.13% in data set [1] (11 h) and 5.47% in data set [1] (22 h). In addition, in data set [2], the Solubility was determined as 72.9 g/100.
Regarding “calcium 3-hydroxy-3-methylbutyrate [reference compound]”, the moisture content is 0.19% in data set [1] (30 min); 0.38% in data set [1] (1 h); 0.63% in data set [1] (2 h); 1.16% in data set [1] (4 h); 1.36% in data set [1] (6 h); 1.51% in data set [1] (7 h). Also, the moisture content came to 1.83% in data set [1] (11 h) and 3.20% in data set [1] (22 h).
